Assay results as given in patent US20260008818A1, “CYCLIC PEPTIDE OR SALT THEREOF, AND USES THEREOF” (FUJIFILM Corporation, priority 2023, published 2026).
Bridge positions count the residues as written; N and C are the ends. Ends that are not written are not given here. COCH2 = acetyl group that carries the bridge

System: Recombinant Human FGFR1 alpha (IIIc) Fc Chimera Protein
Experiment: Binding affinity of enzymatically synthesized cyclic peptide to FGFR by ELISA
Conditions: luminescence signal at reaction concentration 10 nmol/L, SEQ ID NO: 39 standardized to 1, enzyme synthesis product
Summary of the method: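 Graded A–D from luminescence at 10 nmol/L peptide, expressed relative to SEQ ID NO: 39 after subtracting wells lacking receptor. Read-out used anti-Myc antibody (2 h, RT) with chemiluminescent substrate, following 3 h RT binding of peptide to immobilized FGFR1α(IIIc)-Fc, 5 ng per well.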

Substance	Evaluation result of binding affinity to FGFR
42 (RCWDQLTFYGHQAPFYVK(COCH2)G; thioether 2-18 (inferred)) [compound 42]	A (0.7 or more)
49 (HCEWTQLIYYGFSAPYIVK(COCH2)R; thioether 2-19 (inferred)) [compound 49]	C (0.1 or more and less than 0.5)
322 (HCTWERLIFLGHIAPFLVK(COCH2)R; thioether 2-19 (inferred)) [compound 322]	C (0.1 or more and less than 0.5)
195 (HCSYERLQFHGHEAPFYVK(COCH2)V; thioether 2-19 via Ac) [compound 195]	A (0.7 or more)
54 (HCYERLQFHGHEAPFRVK(COCH2)V; thioether 2-18 (inferred)) [compound 54]	A (0.7 or more)
139 (HCSYEQLQFHGHEAPFRVK(COCH2)V; thioether 2-19 (inferred)) [compound 139]	B (0.5 or more and less than 0.7)
81 (RCSYERLQFHGHEAPFRVKV; not fully specified; Description of Artificial Sequence: Cyclic peptide) [compound 81]	A (0.7 or more)
361 (QCPWSTTQQVPFIK(COCH2)V; thioether 2-14) [compound 361]	C (0.1 or more and less than 0.5)
219 (HCSYERLQFHGHEAPFRVK(COCH2)T; thioether 2-19 via Ac; not fully specified) [compound 219]	A (0.7 or more)
158 (HCSYERLQLHGHEAPFRVK(COCH2)V; thioether 2-19 (inferred)) [compound 158]	B (0.5 or more and less than 0.7)
131 (HCSYTRLQFHGHEAPFRVK(COCH2)V; thioether 2-19 (inferred)) [compound 131]	A (0.7 or more)
231 (HK(COCH2)TFERLIFLGHIAPFWVCR; thioether 2-19 (inferred)) [compound 231]	B (0.5 or more and less than 0.7)
187 (HCSYERLQFHGHTAPFRVK(COCH2)V; thioether 2-19 via Ac) [compound 187]	A (0.7 or more)
221 (HCSYERLQFHGHEAPFRVK(COCH2)E; thioether 2-19 (inferred)) [compound 221]	A (0.7 or more)
142 (HCSYERFQFHGHEAPFRVK(COCH2)V; thioether 2-19 (inferred)) [compound 142]	C (0.1 or more and less than 0.5)
153 (HCSYERLSFHGHEAPFRVK(COCH2)V; thioether 2-19 (inferred)) [compound 153]	A (0.7 or more)
333 (HCVYERLIFHGHIAPFWVK(COCH2)V; thioether 2-19 (inferred)) [compound 333]	A (0.7 or more)
60 (HCSYERLAFHGHEAPFRVK(COCH2)V; thioether 2-19 (inferred)) [compound 60]	B (0.5 or more and less than 0.7)
186 (HCSYERLQFHGHSAPFRVK(COCH2)V; thioether 2-19 via Ac) [compound 186]	A (0.7 or more)
70 (ICSYERLQFHGHEAPFRVK(COCH2)V; thioether 2-19 (inferred)) [compound 70]	A (0.7 or more)

Substance	Evaluation result of binding affinity to FGFR
218 (HCSYERLQFHGHEAPFRVK(COCH2)S; thioether 2-19 via Ac; not fully specified) [compound 218]	A (0.7 or more)
217 (HCSYERLQFHGHEAPFRVK(COCH2)Q; thioether 2-19 via Ac; not fully specified) [compound 217]	A (0.7 or more)
212 (HCSYERLQFHGHEAPFRVK(COCH2)I; thioether 2-19 via Ac; not fully specified) [compound 212]	A (0.7 or more)
161 (HCSYERLQYHGHEAPFRVK(COCH2)V; thioether 2-19 (inferred)) [compound 161]	C (0.1 or more and less than 0.5)
76 (QCSYERLQFHGHEAPFRVK(COCH2)V; thioether 2-19 (inferred)) [compound 76]	A (0.7 or more)
164 (HCSYERLQFLGHEAPFRVK(COCH2)V; thioether 2-19 (inferred)) [compound 164]	A (0.7 or more)
100 (HCSFERLQFHGHEAPFRVK(COCH2)V; thioether 2-19 (inferred)) [compound 100]	A (0.7 or more)
347 (PCVQQISPHPWGAPFWVVTSK(COCH2)F; thioether 2-21) [compound 347]	B (0.5 or more and less than 0.7)
372 (CRLIFHGHEAPFWVK(COCH2)V; thioether 1-15) [compound 372]	C (0.1 or more and less than 0.5)
307 (HCSYERLQFHGHEAPFMVK(COCH2)V; thioether 2-19 (inferred)) [compound 307]	A (0.7 or more)
285 (HCSYKRLQFHGHEAPFRVK(COCH2)V; thioether 2-19 (inferred)) [compound 285]	B (0.5 or more and less than 0.7)
210 (HCSYERLQFHGHEAPFRVK(COCH2)G; thioether 2-19 via Ac; not fully specified) [compound 210]	B (0.5 or more and less than 0.7)
297 (HCSMERLQFHGHEAPFRVK(COCH2)V; thioether 2-19 (inferred)) [compound 297]	C (0.1 or more and less than 0.5)
287 (HCSYERLKFHGHEAPFRVK(COCH2)V; thioether 2-19 (inferred)) [compound 287]	A (0.7 or more)
236 (HK(COCH2)TWERLIFQGHIAPFWVCR; thioether 2-19 (inferred)) [compound 236]	A (0.7 or more)
190 (HCSYERLQFHGHHAPFRVK(COCH2)V; thioether 2-19 via Ac) [compound 190]	A (0.7 or more)
133 (HCSYRRLQFHGHEAPFRVK(COCH2)V; thioether 2-19 (inferred)) [compound 133]	B (0.5 or more and less than 0.7)
211 (HCSYERLQFHGHEAPFRVK(COCH2)L; thioether 2-19 via Ac; not fully specified) [compound 211]	A (0.7 or more)
132 (HCSYDRLQFHGHEAPFRVK(COCH2)V; thioether 2-19 (inferred)) [compound 132]	B (0.5 or more and less than 0.7)
